Measured values published in patent US12162879B2, “Pyridopyrimidine derivative, preparation method therefor and medical use thereof” (Jiangsu Hengrui Medicine Co., Ltd., priority 2018, dated 2024).

Assays:
[1] = test system: peripheral blood mononuclear cells (PBMC); assay: Stimulation of IL12 secretion from PBMC (ELISA); type: cell-based; details: minimum effective concentration, human PBMC, 24 hours
Procedure: The stimulating effect of the compounds of the present invention on the ability of secretion of IL12 and IFN γ from PBMC was determined by the following experimental method.
• 1. RMPI 1640 (Invitrogen, 11875); • 2. FBS (Gibco, 10099-141); • 3. Ficoll-Paque PREMIUM (GE, 17-5442-02); • 4. Trypan blue solution (Sigma, T8154-100 ML); • 5. SepMate™-50 (Stemcell, 15460); • 6. Bright-LineIM blood cell counter (Sigma, Z359629-1EA); • 7. 96-well cell culture plate (Corning, 3599); • 8. 96-well v-bottom plate (Corning, 3894); • 9. Human IL-12 ELISA kit (Neobioscience Technology Co., EHC152.96); • 10. Human IFN γ kit (cisbio, 62HIFNGPEG); and • 11. PHERAStar multi-function microplate reader (BMG, PHERAStar). II. Experimental Procedures
The compound was diluted with pure DMSO to a maximum concentration of 5 mM, and a total of 9 points were obtained by a 4-fold gradient dilution. 4 μl of the compound solution was then added to 196 μl of RMPI 1640 medium containing 10% FBS and mixed well. 50 μl of the mixture was taken and added to a 96-well cell culture plate.
All reagents were equilibrated to room temperature. 60 ml of blood from a healthy human and the same volume of PBS (containing 2% FBS) were added to a 250 ml culture flask, gently pipetted, mixed well and diluted. 15 ml of lymphocyte separation solution Ficoll-Paque PREMIUM was added to a 50 ml PBMC centrifuge tube SepMate™-50, followed by the addition of 30 ml of the above diluted blood. The mixture was centrifuged at 1200 g for 10 minutes at room temperature. The supernatant was taken and then centrifuged at 300 g for 8 minutes. The cells were re-suspended in the RMPI 1640 medium containing 10% FBS and counted, and the number of PBMCs was adjusted to 3.33×10^6 cells/ml. 150 μl of the cell solution was added to the plate containing the compounds, and incubated in an incubator at 37° C., 5.0% CO2 for 24 hours. The cell culture plate was placed in a centrifuge, and centrifuged at 1200 rpm for 10 minutes at room temperature. 150 μl of the supernatant was taken from each well.
The reagents in the Human IL-12 ELISA kit were equilibrated to room temperature. According to the kit's instruction, the highest concentration of the standard is 2000 pg/ml, and a total of 8 points were obtained by a 2-fold gradient dilution. The sample to be tested was diluted 20 folds. The solution was then added to a pre-coated plate at 100 μl/well. The plate was incubated at 37° C. for 90 minutes and rinsed. The […] was added at 100 μl/well, and the plate was incubated at 37° C. for 60 minutes and rinsed. HRP binding enzyme was added at 100 μl/well, and the plate was incubated at 37° C. for 30 minutes and rinsed. TMB was added, and the plate was incubated at room temperature for 5 minutes. Finally, the stop solution was added to stop the reaction, and the absorbance at 450 nm was read by the microplate reader.
The concentration of the compound that can stimulate PBMC to produce […] that is 3 times higher than the average value of the group without the compound (SD of the group without the compound) was defined as the minimum effective concentration (MEC) value of the compound.

[2] = target: human TLR8 (Homo sapiens (Human), UniProt Q9NR97); assay: Agonist activity on human TLR8 in HEK-Blue hTLR8 stably transfected cells; type: cell-based; details: 16 hours, OD 620 nm
Procedure: The agonist effect of the compounds of the present invention on hTLR8 expressed by the HEK-Blue™ hTLR8 stably transfected cells was determined by the following experimental method.
• 1. DMEM(Gibco, 10564-029); • 2. Fetal bovine serum (GIBCO, 10099); • 3. Trypan blue solution (Sigma, T8154-100 ML); • 4. Flexstation 3 multi-function microplate reader (Molecular Devices); • 5. HEK-Blue™ hTLR8 cell line (InvivoGen, hkb-hTLR8), or HEK-Blue™ hTLR7 cell line (InvivoGen, hkb-hTLR7); • 6. HEK-Blue detection reagent (InvivoGen, hb-det3); and • 7. Phosphate buffer solution (PBS) pH 7.4 (Shanghai Basalmedia Technologies Co., Ltd., B320). II. Experimental Procedures a. Determination of Agonist Activity on Human TLR8
A bag of HEK-Blue detection dry powder was dissolved in 50 ml of water free of endotoxin, and the solution was then placed in an incubator at 37° C. for 10 minutes followed by sterile filtration to prepare a HEK-Blue detection medium. The compound was firstly formulated into a 20 mM stock solution, then diluted with pure DMSO to a maximum concentration of 6×10^6 nM, and a total of 10 points were obtained by a 3-fold gradient dilution. The above formulated compound was firstly diluted 20-fold with the medium, then 20 μl of the diluted compound was added to each well.
The supernate was removed from the HEK-Blue™ hTLR8 cells, to which 2-5 ml of pre-warmed PBS was then added. The cells were placed in an incubator for 1-2 minutes, gently pipetted, and counted by trypan blue staining. The cells were re-suspended in the HEK-Blue detection medium to adjust the concentration to 2.2×10^5 cells/ml. 180 μl of cells was added to the above 96-well plate comprising 20 μl of the compound, and incubated at 37° C. for 16 hours.
The corresponding OD values were obtained by a microplate reader at a wavelength of 620 nm, and the EC50 values of the compounds were calculated by Graphpad Prism.

Chain of human TLR8 (Q9NR97 27-1041): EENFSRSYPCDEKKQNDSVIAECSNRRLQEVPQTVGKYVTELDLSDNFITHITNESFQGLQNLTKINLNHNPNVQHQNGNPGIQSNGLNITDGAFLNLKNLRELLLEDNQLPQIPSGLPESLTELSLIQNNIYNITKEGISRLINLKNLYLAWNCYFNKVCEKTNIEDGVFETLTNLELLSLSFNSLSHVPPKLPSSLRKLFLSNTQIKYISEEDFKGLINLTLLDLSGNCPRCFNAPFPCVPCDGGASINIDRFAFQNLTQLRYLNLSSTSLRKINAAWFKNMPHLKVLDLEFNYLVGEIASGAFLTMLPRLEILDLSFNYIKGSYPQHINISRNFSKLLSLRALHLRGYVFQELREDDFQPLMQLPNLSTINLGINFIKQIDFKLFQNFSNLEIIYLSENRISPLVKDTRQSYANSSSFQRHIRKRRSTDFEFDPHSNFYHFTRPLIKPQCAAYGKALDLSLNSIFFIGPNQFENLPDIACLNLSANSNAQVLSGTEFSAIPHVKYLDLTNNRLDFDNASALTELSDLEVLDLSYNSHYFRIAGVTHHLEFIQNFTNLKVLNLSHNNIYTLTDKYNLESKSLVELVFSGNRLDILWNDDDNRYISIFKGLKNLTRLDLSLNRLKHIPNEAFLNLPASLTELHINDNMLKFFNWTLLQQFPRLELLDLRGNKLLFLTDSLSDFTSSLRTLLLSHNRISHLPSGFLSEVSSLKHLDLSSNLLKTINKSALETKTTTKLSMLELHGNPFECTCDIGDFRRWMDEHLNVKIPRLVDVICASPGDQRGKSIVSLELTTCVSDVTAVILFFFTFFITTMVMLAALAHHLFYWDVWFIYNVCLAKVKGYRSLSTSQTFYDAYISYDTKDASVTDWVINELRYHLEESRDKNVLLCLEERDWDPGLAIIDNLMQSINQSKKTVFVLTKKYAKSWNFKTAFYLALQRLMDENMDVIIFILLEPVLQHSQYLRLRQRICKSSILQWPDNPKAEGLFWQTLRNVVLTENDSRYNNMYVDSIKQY

| SMILES | EC50 [2] | Emax [2] | IL12 MEC [1] |
| --- | --- | --- | --- |
| CCCC[C@](C)(CO)Nc1nc(N)nc2cc(-c3ccc(CN4CCCC4)nc3)cnc12 [Example 2, (R)-2-((2-Amino-7-(6-(pyrrolidin-1-ylmethyl)pyridin-3-yl)pyrido[3,2-d]pyrimidin-4-yl)amino)-2-methylhexan-1-ol] | 80 nM | 106% | 23 nM |
| CCCC[C@](C)(CO)Nc1nc(N)nc2cc(-c3ccc(C4CCN(C)CC4)nc3)cnc12 [Example 4, (R)-2-((2-Amino-7-(6-(1-methylpiperidin-4-yl)pyridin-3-yl)pyrido[3,2-d]pyrimidin-4-yl)amino)-2-methylhexan-1-ol] | 100 nM | 97% | 31 nM |
| CCCCC(C)(CO)Nc1nc(N)nc2cc(-c3ccc(CN4CCN(C)CC4)nc3)cnc12 (centres unmarked) [Example 5, 2-((2-Amino-7-(6-((4-methylpiperazin-1-yl)methyl)pyridin-3-yl)pyrido[3,2-d]pyrimidin-4-yl)amino)-2-methylhexan-1-ol] | 270 nM | 110% |  |

More lines, main results first:

| EC50 [2] | Emax [2] | SMILES | IL12 MEC [1] |
| --- | --- | --- | --- |
| 100 nM | 107% | CCCC[C@](C)(CO)Nc1nc(N)nc2cc(-c3ccc(CN4CCN(C)CC4)nc3)cnc12 [Example 6, (R)-2-((2-Amino-7-(6-((4-methylpiperazin-1-yl)methyl)pyridin-3-yl)pyrido[3,2-d]pyrimidin-4-yl)amino)-2-methylhexan-1-ol] | 41 nM |
| 40 nM | 114% | CCCC[C@](C)(CO)Nc1nc(N)nc2cc(-c3cnc(C4CCN(C)CC4)nc3)cnc12 [Example 8, (R)-2-((2-Amino-7-(2-(1-methylpiperidin-4-yl)pyrimidin-5-yl)pyrido[3,2-d]pyrimidin-4-yl)amino)-2-methylhexan-1-ol] | 5 nM |
